According to publication PMC5926616 (Japanese Journal of Cancer Research : Gann, 2001):

Columns and labels:
HCT-15/ADM2 = experiment: XTT in vitro growth inhibition assay, HCT-15/ADM2; assay type: cell-based, human; details: IC50 of HCT-15/ADM2 divided by IC50 of parental HCT-15
HCT-15 = experiment: XTT in vitro growth inhibition assay, parental HCT-15; assay type: cell-based, human; details: IC50 of subline divided by IC50 of parental cells; HCT-15 (parental, reference)
HCT-15/ADM2-2 = experiment: XTT in vitro growth inhibition assay, HCT-15/ADM2-2; assay type: cell-based, human; details: IC50 of HCT-15/ADM2-2 divided by IC50 of parental HCT-15
HCT-15/ADM1 = experiment: XTT in vitro growth inhibition assay, HCT-15/ADM1; assay type: cell-based, human; details: IC50 of HCT-15/ADM1 divided by IC50 of parental HCT-15
P-glycoprotein = details: cited from earlier work
P-glycoprotein-ATPase = details: cited from earlier work
[1] = in contrast to cyclosporin A; cited from earlier work
leukemia = details: randomized trials, combination chemotherapy against leukemia; cited from earlier work

Row | Compound | Relative resistance (HCT-15/ADM2) | Relative resistance (HCT-15) | Relative resistance (HCT-15/ADM2-2) | Relative resistance (HCT-15/ADM1) | Effect on binding of photoactive analogues of cyclosporin to P-glycoprotein (P-glycoprotein) | Inhibition of substrate-stimulated P-glycoprotein-ATPase activity (P-glycoprotein-ATPase) | Immunosuppressive activity [1] | Complete remission rates or survival (leukemia)
1 | COc1cccc2c1C(=O)c1c(O)c3c(c(O)c1C2=O)C[C@@](O)(C(=O)CO)C[C@@H]3O[C@H]1C[C@H](N)[C@H](O)[C@H](C)O1 [Adriamycin] | 4.40 | 1 | 7.77 | 2.23 |  |  |  | 
2 | COc1cccc2c1C(=O)c1c(O)c3c(c(O)c1C2=O)C[C@@](O)(C(=O)CO)C[C@@H]3O[C@H]1C[C@H](N)[C@@H](O)[C@H](C)O1 [Epirubicin] | 3.34 | 1 | 4.33 | 1.58 |  |  |  | 
3 | COc1cc([C@@H]2c3cc4c(cc3[C@@H](O[C@@H]3O[C@@H]5CO[C@@H](C)O[C@H]5[C@H](O)[C@H]3O)[C@H]3COC(=O)[C@H]23)OCO4)cc(OC)c1O [Etoposide] | 2.55 | 1 | 3.16 | 2.27 |  |  |  | 
4 | CO[C@@]12[C@H](COC(N)=O)C3=C(C(=O)C(C)=C(N)C3=O)N1C[C@@H]1N[C@@H]12 [Mitomycin C] | 1.77 | 1 | 0.26 | 0.80 |  |  |  | 
5 | O=C1c2c(O)ccc(O)c2C(=O)c2c(NCCNCCO)ccc(NCCNCCO)c21 [Mitoxantrone] | 5.40 | 1 | 3.12 | 1.42 |  |  |  | 
6 | CC(=O)O[C@H]1C(=O)[C@@]2(C)[C@H]([C@H](OC(=O)c3ccccc3)[C@]3(O)C[C@H](OC(=O)[C@H](O)[C@@H](NC(=O)c4ccccc4)c4ccccc4)C(C)=C1C3(C)C)[C@]1(OC(C)=O)CO[C@@H]1C[C@@H]2O [Taxol, paclitaxel] | 2.63 | 1 | 4.81 | 2.81 |  |  |  | 
7 | CC[C@]1(O)C[C@H]2CN(CCc3c([nH]c4ccccc34)[C@@](C(=O)OC)(c3cc4c(cc3OC)N(C=O)[C@H]3[C@@](O)(C(=O)OC)[C@H](OC(C)=O)[C@]5(CC)C=CCN6CC[C@]43[C@@H]65)C2)C1 [Vincristine] | 2.19 | 1 | 2.96 | 2.03 |  |  |  | 
8 | [3′‐keto‐Bmt^1]‐[Val^2]‐cyclosporin [Valspodar] |  |  |  |  | inhibited | more potent than cyclosporin A | non-immunosuppressive | failed to improve
